Tests used:
Hepatitis B virus [1] = test: Antiviral activity against HBV infected in human HepG2.2.15 cells assessed as reduction in HBsAg level in cellular supernatant by luminescence based microplate reader analysis; assay type: functional, organism-based
Hepatitis B virus [2] = test: Antiviral activity against HBV infected in human HepG2.2.15 cells assessed as reduction in HBeAg level in cellular supernatant by luminescence based microplate reader analysis; assay type: functional, organism-based
Hepatitis B virus [3] = test: Antiviral activity against HBV infected in human HepG2.2.15 cells assessed as reduction in intracellular core HBV DNA level incubated for 6 days by qPCR analysis; assay type: functional, organism-based; settings: HepG2.2.15, 144 h
[4] = Cytotoxicity against human HepG2.2.15 cells assessed as reduction in cell viability incubated for 6 days by CCK-8 assay; assay type: toxicity, cell-based, HepG2 2.2.15; settings: for CC50 at 144 h: time 6 day
[5] = AUC (0 to t) in BALB/c mouse at 10 mg/kg, po measured up to 24 hrs by HPLC analysis; assay type: ADME, organism-based; set-up: dose 10 mg/kg, time < 24 hrs, route po; settings: in vivo
[6] = MRT (0 to t) in BALB/c mouse at 10 mg/kg, po measured up to 24 hrs by HPLC analysis; assay type: ADME, organism-based; settings: in vivo
[7] = Elimination half life in BALB/c mouse at 10 mg/kg, po measured up to 24 hrs by HPLC analysis; assay type: ADME, organism-based; settings: in vivo, read-out: beta t1/2 (converted)
[8] = Tmax in BALB/c mouse at 10 mg/kg, po measured up to 24 hrs by HPLC analysis; assay type: ADME, organism-based; settings: in vivo
[9] = Cmax in BALB/c mouse at 10 mg/kg, po measured up to 24 hrs by HPLC analysis; assay type: ADME, organism-based; set-up: dose 10 mg/kg, time < 24 hrs, route po; settings: in vivo
[10] = Neurotoxicity against NGF induced rat PC-12 cells assessed as morphological changes by measuring appearance of round cells with disappearance of neurites at 10 uM incubated for 48 hrs by phase contrast microscopic analysis; assay type: toxicity, cell-based; settings: pc-12, 48 h
[11] = Neurotoxicity against NGF induced rat PC-12 cells assessed as morphological changes by measuring appearance of shrunken cells with disappearance of neurites at 10 uM incubated for 48 hrs by phase contrast microscopic analysis; assay type: toxicity, cell-based; settings: pc-12, 48 h
[12] = Neurotoxicity against NGF induced rat PC-12 cells assessed as morphological changes by measuring appearance of shrunken cells at 10 uM incubated for 48 hrs by phase contrast microscopic analysis; assay type: toxicity, cell-based; settings: pc-12, 48 h
[13] = Neurotoxicity against NGF induced rat PC-12 cells assessed as morphological changes by measuring appearance of clear neurites at 10 uM incubated for 48 hrs by phase contrast microscopic analysis; assay type: toxicity, cell-based; settings: pc-12, 48 h

IC50 (Hepatitis B virus [1]) [nM]	IC50 (Hepatitis B virus [2]) [nM]	IC50 (Hepatitis B virus [3]) [nM]	EC50 (Hepatitis B virus [1]) [nM]	EC50 (Hepatitis B virus [2]) [nM]	EC50 (Hepatitis B virus [3]) [nM]	Structure (SMILES)	CC50 at 144 h [4] [nM]	other results
0.2	15.4	5.7				COc1cc2c(cc1OCC1COc3ccc(F)cc3O1)CC(C(C)C)n1cc(C(=O)O)c(=O)cc1-2 (stereo not drawn)	34700	AUC(0-t) at 24 h [5]: 3.38 µM·h; MRT last at 24 h [6]: 112 min; half-life [7]: 101 min; Tmax [8]: 60 min; Cmax [9]: 1440 nM
18.4	22.7	15.5				COc1cc2c(cc1OCC1COc3cc(F)ccc3O1)CC(C(C)C)n1cc(C(=O)O)c(=O)cc1-2 (stereo not drawn)	11600	
7.5	328	17.9				COc1cc2c(cc1OCC1COc3ccc(C)cc3O1)CC(C(C)C)n1cc(C(=O)O)c(=O)cc1-2 (stereo not drawn)	34700	
			0.8	191	1.9	COc1cc2c(cc1OCc1ccc3c(c1)OCO3)C[C@@H](C(C)C)n1cc(C(=O)O)c(=O)cc1-2		Activity [10]: Toxic; Activity [11]: Toxic
1.5	2	12.1				COc1cc2c(cc1OCC1COc3ccccc3O1)CC(C(C)C)n1cc(C(=O)O)c(=O)cc1-2 (stereo not drawn)		IC50 at 6 days [4]: 21500 nM
7.7	86.5	5.7				COc1cc2c(cc1OCC1COc3ccc(Cl)cc3O1)CC(C(C)C)n1cc(C(=O)O)c(=O)cc1-2 (stereo not drawn)	11600	
			3080	12800	3080	COc1cc2c(cc1OC[C@H]1COc3cccnc3O1)C[C@H](C(C)C)n1cc(C(=O)O)c(=O)cc1-2		
1.6	57.3	37.2				COc1cc2c(cc1OCC1COc3cccc(F)c3O1)CC(C(C)C)n1cc(C(=O)O)c(=O)cc1-2 (stereo not drawn)	21500	
			239	2030	124	COc1cc2c(cc1OCc1ccc3c(c1)OCO3)C[C@H](C(C)C)n1cc(C(=O)O)c(=O)cc1-2		
1.5	20.6	29				COc1cc2c(cc1OCC1COc3c(F)cccc3O1)CC(C(C)C)n1cc(C(=O)O)c(=O)cc1-2 (stereo not drawn)	16700	
5.1	> 1000	18.2				COc1cc2c(cc1OCC1COCCO1)CC(C(C)C)n1cc(C(=O)O)c(=O)cc1-2 (stereo not drawn)	> 50000	
4.6	18.2	16.5				COc1cc2c(cc1OCC1COc3ccc([N+](=O)[O-])cc3O1)CC(C(C)C)n1cc(C(=O)O)c(=O)cc1-2 (stereo not drawn)	50000	
403	> 1000	52				COc1ccc2c(c1)OCC(COc1cc3c(cc1OC)-c1cc(=O)c(C(=O)O)cn1C(C(C)C)C3)O2 (stereo not drawn)	> 50000	
18.4	16.4	1.2				COc1cc2c(cc1OCCC1COc3ccccc3O1)CC(C(C)C)n1cc(C(=O)O)c(=O)cc1-2 (stereo not drawn)	11600	
34.3	> 1000	36.9				COc1cc2c(cc1OCC1COc3cc(Br)ccc3O1)CC(C(C)C)n1cc(C(=O)O)c(=O)cc1-2 (stereo not drawn)	34700	
			1.2	2010	119	COc1cc2c(cc1OC[C@@H]1CCCO1)C[C@H](C(C)C)n1cc(C(=O)O)c(=O)cc1-2		
			5.1	220	2.1	COc1cc2c(cc1OC[C@H]1CCCO1)C[C@@H](C(C)C)n1cc(C(=O)O)c(=O)cc1-2		Activity [12]: Toxic
1.6	66.7	5				COc1cc2c(cc1OCc1ccc3c(c1)OCO3)CC(C(C)C)n1cc(C(=O)O)c(=O)cc1-2 (stereo not drawn)	> 50000	AUC(0-t) at 24 h [5]: 4.46 µM·h; MRT last at 24 h [6]: 101 min; half-life [7]: 82.2 min; Tmax [8]: 49.8 min; Cmax [9]: 2180 nM

IC50 (Hepatitis B virus [1]) [nM]	IC50 (Hepatitis B virus [2]) [nM]	IC50 (Hepatitis B virus [3]) [nM]	EC50 (Hepatitis B virus [1]) [nM]	EC50 (Hepatitis B virus [2]) [nM]	EC50 (Hepatitis B virus [3]) [nM]	Structure (SMILES)	CC50 at 144 h [4] [nM]	other results
3.5	179	10.1				COc1cc2c(cc1OCC1COc3cc(C)ccc3O1)CC(C(C)C)n1cc(C(=O)O)c(=O)cc1-2 (stereo not drawn)	11600	
			1.4	104	1.4	COc1cc2c(cc1OC[C@H]1COc3cccnc3O1)C[C@@H](C(C)C)n1cc(C(=O)O)c(=O)cc1-2		Activity [12]: Toxic
24.5	127	13.4				COc1cc2c(cc1OCC1COc3ccc(Br)cc3O1)CC(C(C)C)n1cc(C(=O)O)c(=O)cc1-2 (stereo not drawn)	11600	
3.7	39.5	9.1				COc1cc2c(cc1OCC1COc3cc(Cl)ccc3O1)CC(C(C)C)n1cc(C(=O)O)c(=O)cc1-2 (stereo not drawn)	10600	
509	27	1.6				COc1cc2c(cc1OCC1CCCO1)CC(C(C)C)n1cc(C(=O)O)c(=O)cc1-2 (stereo not drawn)	> 50000	AUC(0-t) at 24 h [5]: 10.4 µM·h; MRT last at 24 h [6]: 65.4 min; half-life [7]: 39.6 min; Tmax [8]: 19.8 min; Cmax [9]: 8840 nM
0.2	10.2	13.4				COc1cc2c(cc1OCc1ccc3c(c1)OCCO3)CC(C(C)C)n1cc(C(=O)O)c(=O)cc1-2 (stereo not drawn)	34700	
1.1	158	11.2				COc1ccc(COc2cc3c(cc2OC)-c2cc(=O)c(C(=O)O)cn2C(C(C)C)C3)cc1OC (stereo not drawn)	> 50000	
1.9	94.9	0.5				COc1cc2c(cc1OCC1COc3cccnc3O1)CC(C(C)C)n1cc(C(=O)O)c(=O)cc1-2 (stereo not drawn)	> 50000	AUC(0-t) at 24 h [5]: 2.38 µM·h; MRT last at 24 h [6]: 52.8 min; half-life [7]: 43.2 min; Tmax [8]: 30 min; Cmax [9]: 2910 nM
1.2	21	4.2				COc1cc2c(cc1OCC1COc3c(Cl)cccc3O1)CC(C(C)C)n1cc(C(=O)O)c(=O)cc1-2 (stereo not drawn)	11600	
1.7	> 1000	8.1				COc1ccc2c(c1)OC(COc1cc3c(cc1OC)-c1cc(=O)c(C(=O)O)cn1C(C(C)C)C3)CO2 (stereo not drawn)	31900	
			3.5	3380	37.5	COc1cc2c(cc1OC[C@H]1CCCO1)C[C@H](C(C)C)n1cc(C(=O)O)c(=O)cc1-2		
			882	3190	882	COc1cc2c(cc1OC[C@@H]1COc3cccnc3O1)C[C@H](C(C)C)n1cc(C(=O)O)c(=O)cc1-2		
			1.6	4.6	0.6	COc1cc2c(cc1OC[C@@H]1CCCO1)C[C@@H](C(C)C)n1cc(C(=O)O)c(=O)cc1-2		Activity [13]: Non-Toxic
1.2	> 1000	181				COc1cc2c(cc1OC(C)c1ccc3c(c1)OCO3)CC(C(C)C)n1cc(C(=O)O)c(=O)cc1-2 (stereo not drawn)	> 50000	
			6.3	70	86.3	COc1cc2c(cc1OC[C@@H]1COc3cccnc3O1)C[C@@H](C(C)C)n1cc(C(=O)O)c(=O)cc1-2		Activity [12]: Toxic
1.1	56.2	0.6				COc1cc2c(cc1OCC1CCOC1)CC(C(C)C)n1cc(C(=O)O)c(=O)cc1-2 (stereo not drawn)	> 50000	
3.4	53.2	4.3				COc1cc2c(cc1OCC1COc3cccc(Cl)c3O1)CC(C(C)C)n1cc(C(=O)O)c(=O)cc1-2 (stereo not drawn)	11600	

Structure (SMILES)	IC50 (Hepatitis B virus [1]) [nM]	IC50 (Hepatitis B virus [2]) [nM]	IC50 (Hepatitis B virus [3]) [nM]	EC50 (Hepatitis B virus [1]) [nM]	EC50 (Hepatitis B virus [2]) [nM]	EC50 (Hepatitis B virus [3]) [nM]	CC50 at 144 h [4] [nM]	other results
COCCCOc1cc2c(cc1OC)-c1cc(=O)c(C(=O)O)cn1[C@@H](C(C)C)C2				928	3270	75.8		
COCCCOc1cc2c(cc1OC)-c1cc(=O)c(C(=O)O)cn1C(C(C)C)C2 (racemic)	5.1	91.2	86.3	1	18.2	1	> 50000	AUC(0-t) at 24 h [5]: 17.2 µM·h; MRT last at 24 h [6]: 67.8 min; half-life [7]: 51 min; Tmax [8]: 11.4 min; Cmax [9]: 11600 nM; Activity [10]: Toxic; Activity [11]: Toxic
